Results taken from PubChem BioAssay AID1963984 (Molecular Pharmacology Branch, DTP, NCI, 2024).

Test system: 233499-124-R-J3-PDC spheroids with HUVEC/MSC, viability
Assay: Anticancer human tumor 233499-124-R-J3-PDC patient-derived colon adenocarcinoma cell line growth inhibition [PI3K]
Conditions: for IC50: curve of first compound; for viability, T/C: stronger effect = lower value
How it was run: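 Combination activity was assessed by viability in multicellular tumor spheroids carrying HUVEC and MSC components. Agents were tested with PI3K inhibitors from a Cmax-based top dose (or 10 microM) downward in half-log increments.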

[1] = second compound 0.0316 µM, first compound 0.0316 µM
[2] = second compound 0.0316 µM, first compound 0.1 µM
[3] = second compound 0.0316 µM, first compound 0.316 µM
[4] = second compound 0.0316 µM, first compound 1 µM
[5] = second compound 0.0316 µM, first compound 3.16 µM
[6] = second compound 0.0316 µM, first compound 10 µM
[7] = second compound 0.1 µM, first compound 0.0316 µM
[8] = second compound 0.1 µM, first compound 0.1 µM
[9] = second compound 0.1 µM, first compound 0.316 µM
[10] = second compound 0.1 µM, first compound 1 µM
[11] = second compound 0.1 µM, first compound 3.16 µM
[12] = second compound 0.1 µM, first compound 10 µM
[13] = second compound 0.316 µM, first compound 0.0316 µM
[14] = second compound 0.316 µM, first compound 0.1 µM
[15] = second compound 0.316 µM, first compound 0.316 µM
[16] = second compound 0.316 µM, first compound 1 µM
[17] = second compound 0.316 µM, first compound 3.16 µM
[18] = second compound 0.316 µM, first compound 10 µM
[19] = second compound 1 µM, first compound 0.0316 µM
[20] = second compound 1 µM, first compound 0.1 µM
[21] = second compound 1 µM, first compound 0.316 µM
[22] = second compound 1 µM, first compound 1 µM
[23] = second compound 1 µM, first compound 3.16 µM
[24] = second compound 1 µM, first compound 10 µM
[25] = second compound 3.16 µM, first compound 0.0316 µM
[26] = second compound 3.16 µM, first compound 0.1 µM
[27] = second compound 3.16 µM, first compound 0.316 µM
[28] = second compound 3.16 µM, first compound 1 µM
[29] = second compound 3.16 µM, first compound 3.16 µM
[30] = second compound 3.16 µM, first compound 10 µM
[31] = second compound 10 µM, first compound 0.0316 µM
[32] = second compound 10 µM, first compound 0.1 µM
[33] = second compound 10 µM, first compound 0.316 µM
[34] = second compound 10 µM, first compound 1 µM
[35] = second compound 10 µM, first compound 3.16 µM
[36] = second compound 10 µM, first compound 10 µM
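Note: spheroids exposed to agents for seven days before readout.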
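Throughout, for viability, T/C: percent viability relative to DMSO vehicle control taken as 100%.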

## CC(Cn1ccc(-c2ccc(C#N)c(Cl)c2)n1)NC(=O)c1cc(C(C)O)[nH]n1 (stereo unspecified) + Cc1nc(NC(=O)N2CCCC2C(N)=O)sc1-c1ccnc(C(C)(C)C(F)(F)F)c1
Second compound 0.0316 µM
  IC50: > 10 µM
Second compound 0.1 µM
  IC50: > 10 µM
Second compound 0.316 µM
  IC50: > 10 µM
Second compound 1 µM
  IC50: > 10 µM
Second compound 3.16 µM
  IC50: 5.95 µM
Second compound 10 µM
  IC50: < 0.0316 µM
[1]
  viability, T/C: 88.9%
[2]
  viability, T/C: 81.6%
[3]
  viability, T/C: 101%
[4]
  viability, T/C: 97.3%
[5]
  viability, T/C: 95.6%
[6]
  viability, T/C: 85.6%
[7]
  viability, T/C: 102%
[8]
  viability, T/C: 106%
[9]
  viability, T/C: 98.7%
[10]
  viability, T/C: 108%
[11]
  viability, T/C: 72.6%
[12]
  viability, T/C: 92.5%
[13]
  viability, T/C: 55.1%
[14]
  viability, T/C: 74.3%
[15]
  viability, T/C: 105%
[16]
  viability, T/C: 100%
[17]
  viability, T/C: 86.7%
[18]
  viability, T/C: 77.6%
[19]
  viability, T/C: 77.2%
[20]
  viability, T/C: 76.5%
[21]
  viability, T/C: 83.7%
[22]
  viability, T/C: 50.5%
[23]
  viability, T/C: 63.6%
[24]
  viability, T/C: 81.9%
[25]
  viability, T/C: 61.8%
[26]
  viability, T/C: 53.8%
[27]
  viability, T/C: 59.7%
[28]
  viability, T/C: 64.6%
[29]
  viability, T/C: 39.6%
[30]
  viability, T/C: 52.5%
[31]
  viability, T/C: 30.7%
[32]
  viability, T/C: 33.9%
[33]
  viability, T/C: 35%
[34]
  viability, T/C: 42.2%
[35]
  viability, T/C: 21.9%
[36]
  viability, T/C: 38.9%

## CCCS(=O)(=O)Nc1ccc(F)c(C(=O)c2c[nH]c3ncc(-c4ccc(Cl)cc4)cc23)c1F + Cc1nc(NC(=O)N2CCCC2C(N)=O)sc1-c1ccnc(C(C)(C)C(F)(F)F)c1
Second compound 0.0316 µM
  IC50: 5.29 µM
Second compound 0.1 µM
  IC50: 4.82 µM
Second compound 0.316 µM
  IC50: 4.83 µM
Second compound 1 µM
  IC50: 4.7 µM
Second compound 3.16 µM
  IC50: 3.57 µM
Second compound 10 µM
  IC50: < 0.0316 µM
[1]
  viability, T/C: 119%
[2]
  viability, T/C: 98.2%
[3]
  viability, T/C: 87.2%
[4]
  viability, T/C: 110%
[5]
  viability, T/C: 89%
[6]
  viability, T/C: 1.84%
[7]
  viability, T/C: 97%
[8]
  viability, T/C: 109%
[9]
  viability, T/C: 84.8%
[10]
  viability, T/C: 92.5%
[11]
  viability, T/C: 77.7%
[12]
  viability, T/C: 4.22%
[13]
  viability, T/C: 98.9%
[14]
  viability, T/C: 81.7%
[15]
  viability, T/C: 84.5%
[16]
  viability, T/C: 98.1%
[17]
  viability, T/C: 78.2%
[18]
  viability, T/C: 1.3%
[19]
  viability, T/C: 82.8%
[20]
  viability, T/C: 71.8%
[21]
  viability, T/C: 86.3%
[22]
  viability, T/C: 67%
[23]
  viability, T/C: 75.3%
[24]
  viability, T/C: 1.86%
[25]
  viability, T/C: 55.8%
[26]
  viability, T/C: 59.1%
[27]
  viability, T/C: 49.1%
[28]
  viability, T/C: 53.9%
[29]
  viability, T/C: 59.4%
[30]
  viability, T/C: 4.28%
[31]
  viability, T/C: 34.1%
[32]
  viability, T/C: 35.4%
[33]
  viability, T/C: 50.9%
[34]
  viability, T/C: 29.8%
[35]
  viability, T/C: 22.8%
[36]
  viability, T/C: 0.89%

## Cn1ncnc1[C@H]1c2n[nH]c(=O)c3cc(F)cc(c23)N[C@@H]1c1ccc(F)cc1 + CC(Nc1ccc2c(c1)OCCn1cc(N3C(=O)OCC3C(F)F)nc1-2)C(N)=O
Second compound 0.00316 µM
  IC50: > 0.1 µM
Second compound 0.01 µM
  IC50: 0.0966 µM
Second compound 0.0316 µM
  IC50: > 0.1 µM
Second compound 0.1 µM
  IC50: > 0.1 µM
Second compound 0.316 µM
  IC50: > 0.1 µM
Second compound 1 µM
  IC50: 0.0269 µM
Second compound 0.00316 µM, first compound 0.000316 µM
  viability, T/C: 86.6%
Second compound 0.00316 µM, first compound 0.001 µM
  viability, T/C: 109%
Second compound 0.00316 µM, first compound 0.00316 µM
  viability, T/C: 70%
Second compound 0.00316 µM, first compound 0.01 µM
  viability, T/C: 105%
Second compound 0.00316 µM, first compound 0.0316 µM
  viability, T/C: 84.3%
Second compound 0.00316 µM, first compound 0.1 µM
  viability, T/C: 63.4%
Second compound 0.01 µM, first compound 0.000316 µM
  viability, T/C: 77.7%
Second compound 0.01 µM, first compound 0.001 µM
  viability, T/C: 111%
Second compound 0.01 µM, first compound 0.00316 µM
  viability, T/C: 88.3%
Second compound 0.01 µM, first compound 0.01 µM
  viability, T/C: 92.1%
Second compound 0.01 µM, first compound 0.0316 µM
  viability, T/C: 97%
Second compound 0.01 µM, first compound 0.1 µM
  viability, T/C: 48.7%
Second compound 0.0316 µM, first compound 0.000316 µM
  viability, T/C: 92.6%
Second compound 0.0316 µM, first compound 0.001 µM
  viability, T/C: 81.9%
Second compound 0.0316 µM, first compound 0.00316 µM
  viability, T/C: 63.6%
Second compound 0.0316 µM, first compound 0.01 µM
  viability, T/C: 73.4%
[1]
  viability, T/C: 83.8%
[2]
  viability, T/C: 61.7%
Second compound 0.1 µM, first compound 0.000316 µM
  viability, T/C: 97.5%
Second compound 0.1 µM, first compound 0.001 µM
  viability, T/C: 92.3%
Second compound 0.1 µM, first compound 0.00316 µM
  viability, T/C: 83.3%
Second compound 0.1 µM, first compound 0.01 µM
  viability, T/C: 72.8%
[7]
  viability, T/C: 87.9%
[8]
  viability, T/C: 66.3%
Second compound 0.316 µM, first compound 0.000316 µM
  viability, T/C: 71.9%
Second compound 0.316 µM, first compound 0.001 µM
  viability, T/C: 94.2%
Second compound 0.316 µM, first compound 0.00316 µM
  viability, T/C: 75%
Second compound 0.316 µM, first compound 0.01 µM
  viability, T/C: 70.8%
[13]
  viability, T/C: 60.2%
[14]
  viability, T/C: 58.3%
Second compound 1 µM, first compound 0.000316 µM
  viability, T/C: 72.2%
Second compound 1 µM, first compound 0.001 µM
  viability, T/C: 58.1%
Second compound 1 µM, first compound 0.00316 µM
  viability, T/C: 58.3%
Second compound 1 µM, first compound 0.01 µM
  viability, T/C: 58.2%
[19]
  viability, T/C: 52.1%
[20]
  viability, T/C: 33%
